# Data taken from US20140161915A1, “Solubilization of cucurminoid compounds and products thereof” (priority 2011, published 2014).
# Tests used:
# [1] = Curcumin dissolution in water (saturated), centrifuged supernatant read by UV-Vis at 405 nm; type: physicochemical
# [2] = system: anti-Ro60 autoantibodies / Ro60 autoantigen; test: Inhibition of binding of anti-Ro60 autoantibodies to Ro60 autoantigen; design: species or system human; details: heat-solubilized
# [3] = Stability of dissolved curcumin: hydrolysis at alkaline pH and precipitation over time; type: physicochemical; details: pressure-dissolved (15 psi, 121° C.) solution
# Method: For solutions made at room temperature it is difficult to obtain a clear (i.e., solid-free) supernatant even from careful centrifuging. The samples are far more soluble in alkaline water (e.g., pH 7.6), but when placed in phosphate buffered saline (PBS) and serum-free media at modest alkaline pH (pH 7.2, at 37° C.) the curcuminoids are hydrolyzed substantially completely within 30 minutes.
# Even so, UV-Visible spectra and mass specta (from matrix assisted laser desorption […] time of flight mass spectrometry, MALDI-TOF-MS) confirmed that the dissolved curcumin was substantially unchanged by the heat treatment. Heat treatment also appears to increase the solubilization of BDMC but (curiously) not DMC.
# (§1) The autoclave cycle was 70 minutes, of which ˜40 minutes represent actual time under pressure.
# [4] = cited from earlier work
# [5] = Curcumin dissolution in water (saturated), centrifuged supernatant read by UV-Vis at 405 nm; type: physicochemical; remark: listed apart in the source
# Method: as §1
# That mixture was then combined with 47.5 mL of deionized water to make up a 50 mL solution.
# anti-spectrin / spectrin = test: Inhibition of binding of commercial polyclonal anti-spectrin to spectrin; details: heat-solubilized
# [6] = system: 4-hydroxy-2-nonenal-mediated oxidative modification of a protein substrate; test: Inhibition of 4-hydroxy-2-nonenal-mediated oxidative modification of a protein substrate; type: biochemical; details: heat-solubilized
# DNA = test: Binding or intercalation to DNA; details: heat solubilized
# [7] = Ingestion of aqueous solubilized curcumin by four adult males, reported effects; type: in vivo, human
# Method: The study conditions were as follows.
# This subject's study was conducted in a completely blind manner: the subject was told nothing about the known or suspected properties but was merely asked to report their observations.
# [8] = 0.1% Tween-20, room pressure, 100° C. deionized water
# [9] = 0.5% Tween-20, 15 psi, 121° C., deionized water
# [10] = 2% Tween-20, room pressure, 100° C. deionized water
# [11] = 15 psi, 121° C., deionized water, 5 mg/mL present
# [12] = 0.1% Tween-20, 15 psi, 121° C., deionized water
# [13] = 2% Tween-20, 15 psi, 121° C., deionized water
compound,measurement,setting,value
"COc1cc(/C=C/C(=O)CC(=O)/C=C/c2ccc(O)c(OC)c2)ccc1O [curcumin, 1,7-bis[4-hydroxy-3-methoxyphenyl]-1,6-heptadiene-3,5-dione]",Dissolution (Approximate) Mass/mL,[1]; [8],22.5 µg/mL
same,Dissolution (Approximate) Molarity,[1]; [8],0.061 mM
same,Dissolution (Approximate) Mass/mL,[1]; [9],278.1 µg/mL
same,Dissolution (Approximate) Mass/mL,"[1]; 0.5% Tween-20, room pressure, 100° C. deionized water",77.44 µg/mL
same,Dissolution (Approximate) Mass/mL,[1]; [10],443.52 µg/mL
same,Dissolution (Approximate) Molarity,[1]; [10],1.2 mM
same,Dissolution (Approximate) Molarity,[1]; [11],0.68 mM
same,Inhibition of binding of anti-Ro60 autoantibodies to Ro60 autoantigen,[2]; Sjögren's syndrome sera,up to 43%
same,Inhibition of binding of anti-Ro60 autoantibodies to Ro60 autoantigen,[2]; systemic lupus erythematosus (SLE) sera,up to 52%
same,Precipitation or turbidity of the solution over time,[3],did not precipitate out or cause the solution to become cloudy or turbid
same,Reduction in pristine curcumin,[3]; alkaline pH for 72 hours,32%
same,Increase in solubility by heat treatment over unheated,[4]; Kurien et al. (2007): boiling deionized water,12 fold
same,Solubility of curcumin itself,"[4]; deionized water at room temperature, dissolved material is DMC and BDMC",insoluble
same,Dissolution (Approximate) Mass/mL,[5]; [12],44.84 µg/mL
same,Dissolution (Approximate) Molarity,[5]; [12],0.12 mM
same,Dissolution (Approximate) Molarity,[5]; [9],0.75 mM
same,Dissolution (Approximate) Mass/mL,[5]; [13],1556 µg/mL
same,Dissolution (Approximate) Molarity,[5]; [13],4.2 mM
same,Increase over curcumin dissolved at ambient temperature,"[5]; 15 psi, 121° C., 5% ethanol in deionized water",~100 fold
same,Dissolved share of the original amount,"[5]; 15 psi, 121° C., 5% ethanol in deionized water, made up to 50 mL",about 12.9%
same,Dissolved share of the curcumin initially present,[5]; [11],5%
same,Solubilized share of starting curcumin,"[5]; autoclaved in water with 2% of a poly(alkyl ether), 50 mL starting solution",31%
same,Inhibition of binding of commercial polyclonal anti-spectrin to spectrin,anti-spectrin / spectrin,50%
same,Inhibition of 4-hydroxy-2-nonenal-mediated oxidative modification of a protein substrate,[6],80%
same,Intercalation into or binding to DNA,DNA,does not intercalate into or otherwise bind to DNA
same,Duration of relief from metatarsal arthritic inflammation,"[7]; Subject #3, about 100 kg, 20 mL of 350 micromolar sample (autoclave, 5% ethanol), ingested",about 48 hours
same,Effect on mood,"[7]; four adult males, 5-20 mL of 150-350 micromolar autoclaved aqueous curcumin, ingested",mood elevating effects
same,Onset of mood elevating effects,"[7]; four adult males, ingested autoclaved aqueous curcumin",almost instantaneously
